Our source for the melting point values is a melting point compilation (Tetko et al.; mined from patent text by program, amines drawn as free bases though some values may be those of a salt).

As to `Cc1ccc(C)n1S(=O)(=O)c1ccc(CC(=O)c2ccccc2)cc1`, the melting point – broadly, the temperature, or range, at which the solid turns liquid – lay in the range of 94.6 to 98.8 °C.

As to `Cc1c(CN2CCc3c(c4cccc(Br)c4n3C)C2=O)ncn1S(=O)(=O)N(C)C`, the melting point was in the range of 182 to 185 °C.

As for `CCOC(=O)C(=O)/C=C/c1ccc(OCc2nc(-c3ccccc3)oc2C)cc1`, the melting point is 110 to 111 °C.

In the case of `CCn1c(=O)n(CCc2ccc(C)cc2)c(=O)n(C(C)(C)C)c1=O`, the melting point was found to be 64 °C.

Take `CC(C)(C)n1nn[nH]c1=S`: the melting point was in the range of 92 to 94 °C.

As to `CCOC(=O)Cn1c(=S)c2cc(Cl)ccc2n(Cc2ccc(Br)cc2F)c1=O`, the melting point was in the range of 89 to 90 °C.

In turn, `FC(F)(F)c1ccc(/C=C/C2=CCN(Cc3c[nH]c4ncccc34)CC2)cc1` displayed a melting point of 203 to 205 °C.

In turn, `Cc1nc(-c2ccccc2)nc(-c2ccncc2)c1NC(=O)OC(C)(C)C` registered a melting point of 166 to 167 °C.

`CCCCCCN1c2ccccc2NC(=O)c2cscc21`: the melting point lay within 112 to 113 °C.

As for `CC(C)(C)C1=NN(c2ccc(C(=O)O)cc2)C(c2ccc([N+](=O)[O-])cc2)C1` (stereo not given), the melting point came out at 245 °C.

For the compound `O=C(CCc1ccc(Cl)cc1Cl)NC1N=C(c2ccccc2)c2ccccc2-n2ccnc21` (stereo not given), the melting point lay in the range of 183 to 184 °C.

Compound `COc1cc2c(c(C(=O)O)c1OC)CCN(Cc1ccccc1)CC2c1ccccc1` (stereo not given) gave a melting point of 145 to 153 °C.

The compound `CC1=Cc2c(cccc2-c2cccc3ccccc23)C1` showed a melting point of 143 °C.

`CC(=O)c1cc(O)c(C)c(C)c1O` came in with a melting point of 151 °C.

For the compound `CC(CCN1CCN(c2ccc(F)cc2)CC1)N1c2cccc3cccc(c23)S1(=O)=O` (stereo not given), the melting point came to 116 °C.

Compound `CCOC(=O)Cc1nc(-c2ccc(Cl)c(Cl)c2)oc1-c1ccoc1` yielded a melting point of 130 to 131 °C.

Turning to `OCCCNC1=Nc2ccccc2C1(O)c1cccc(Cl)c1` (stereo not given), the melting point fell in the range of 164 to 165 °C.

With `COc1cccc2c(=O)[nH]c(C3CCN(C)CC3)cc12`, the melting point fell in the range of 239 to 242 °C.

Consider `CN1C(=O)C2(COc3cc4c(cc32)OCO4)c2c(C3CCOC3)cccc21` (stereo not given), for which the melting point is 182 to 184 °C.

As for `COc1cc2nc(C(=O)O)c(=O)n(C)c2cc1OC`, the melting point amounted to 261 °C.

Compound `CC(=O)c1cc(C[C@H](NC(=O)c2c(Cl)cccc2Cl)C(=O)O)ccc1-c1ccccc1` came in with a melting point of 109 to 111 °C.

Take `COCCNC(N)=Nc1ccccc1N1CCOCC1`: the melting point fell in the range of 125 to 128 °C.

For `CC(C)(C)OC(=O)N1CCn2c(Cl)cc(C(N)=O)c2C1`, the melting point is 223 to 225 °C.

Take `CCN1CC=CC2=C1N1CN(OC)C=C1N=N2`: the melting point lay within 167 to 168 °C.

`C[C@H]1CCCC[C@H]1Nc1c(C(N)=O)cnn2cccc12`: the melting point amounted to 155 °C.

For `FC(F)(F)c1cc2ccccc2[nH]1`, the melting point was determined as 102 °C.

In the case of `CC1(C)CC(=O)N(CCCCN2CCN(c3nc(C(C)(C)C)cs3)CC2)C(=O)C1`, the melting point fell in the range of 93 to 94 °C.

Compound `O=C(CSc1nc2ccccc2s1)c1ccc2[nH]c3ncc(Cl)cc3c2c1` came in with a melting point of 241 to 242 °C.

In the case of `N#Cc1nn(-c2c(Cl)cc(C(F)(F)F)cc2Cl)cc1C1(C(F)(F)C(F)(F)C(F)(F)F)CC1`, the melting point lay within 95 to 96 °C.

`CCc1c(-c2ccccc2)c2c(c3c1[nH]c1ccc(O)cc13)C(=O)NC2=O`: the melting point is 190 to 196 °C.

`CN(C)c1ccc(C2NCCc3sccc32)cc1` (stereo not given) gave a melting point of 95 to 98 °C.

As to `Cc1sccc1-c1nc2c3ccsc3ccn2c1N`, the melting point lay within 161 to 162 °C.

Consider `O=C(Nc1ccc(OCCN2CCOCC2)c2ccccc12)c1cccc(Br)c1`, for which the melting point lay within 90 to 93 °C.

For `Oc1ccc(C2CCOCC2)cc1Cl`, the melting point fell in the range of 123 to 125 °C.

In the case of `CC(=O)OC1CCC2C3C(Sc4ccc(Br)cc4)C(=O)c4cc(O)ccc4C3CCC12C` (stereo not given), the melting point lay in the range of 190 to 192 °C.

With `COc1ccc(Oc2ccc(C(C)=C3SCCCS3=O)cc2)cc1` (stereo not given), the melting point lay within 136 to 138 °C.

As for `Cc1ccccc1CNc1cccc(-c2ccnc3c(C(=O)c4cccs4)cnn23)c1`, the melting point was 177 to 179 °C.

`O=C1CCC2(CCC(=O)N2c2ccc(Cc3ccc(N4C(=O)CCC45CCC(=O)O5)cc3)cc2)O1` (stereo not given): the melting point worked out at 135 °C.

In the case of `COc1cc2nc(N3CCN(c4nc5ccccc5[nH]4)CC3)nc(N)c2cc1OC`, the melting point is more than 250 °C.

`O=C(Nc1ccccc1Nc1ccccc1)N[C@@H](Cc1ccc(NC(=O)c2c(Cl)cccc2Cl)cc1)C(=O)O` yielded a melting point of 174 °C.

`CC(C)C(O)(Cc1ccccc1)Cc1ccccc1` returned a melting point of 52 to 53 °C.

In turn, `N#CN1C(=O)[C@H]2CC=CC[C@H]2C1=O` registered a melting point of 136 to 138 °C.

In turn, `CC(C)(C)N(NCc1ccccc1)C(=O)c1ccccc1` showed a melting point of 110 °C.

Compound `NC1=C(c2cccc(C(F)(F)F)c2)C(=O)OC1` displayed a melting point of 165 °C.

Regarding `COc1ccccc1C1=NNNN1C(c1ccccc1)(c1ccccc1)c1ccccc1`, the melting point was 165 to 170 °C.

The compound `ON=C1CCN(CC2c3ccccc3CCc3ccccc32)CC1` returned a melting point of 199 to 202 °C.

Regarding `N#Cc1nn(-c2c(Cl)cc(C(F)(F)F)cc2Cl)c(C(O)C(F)(F)F)c1SC(F)(F)F` (stereo not given), the melting point came out at 106 °C.

In turn, `Nc1cc(=O)n(CCCO)c2nc(NC3CCCCC3)ncc12` displayed a melting point of 131 to 132 °C.

Take `CC1C(=O)N(c2ccc(F)cc2)C(=S)N1c1ccc(Oc2ccccc2)cc1` (stereo not given): the melting point stood at 150 °C.

`O=C(C[C@@H](CCCC1CCCCC1)c1nc(CN2CCOCC2)co1)NO` yielded a melting point of 117 to 119 °C.

Compound `O=C1Nc2cccnc2N(C(=O)N2CCCC(CCN3CCCC3)C2)c2cc(Cl)ccc21` (stereo not given) had a melting point of 136 to 139 °C.

Regarding `O=c1cc(C(F)(F)F)nc(Cl)n1-c1cc(Oc2ncccn2)c(Cl)cc1F`, the melting point fell in the range of 132 to 134 °C.

In the case of `COC(=O)C(CCCCN1C(=O)c2ccccc2C1=O)C(=O)OC`, the melting point lay within 55 to 58 °C.

As for `CN1CCN(c2cccc(-c3cnn4c(N)c(Cc5ccccc5)cnc34)c2)CC1`, the melting point lay within 72 to 75 °C.

In turn, `CN(C)CCNC1=CC(=O)c2oc(-c3cc(F)c(F)c(F)c3)nc2C1=O` came in with a melting point of 200 to 201 °C.

With `Cc1cc(C(=O)Nc2cc(F)ccc2O)c(Br)s1`, the melting point fell in the range of 210 to 212 °C.

`O=C(NCc1ccn(C2=CC3=C(CC2)CCc2[nH]c(=O)c(=O)n(O)c23)c1)Nc1ccccc1` showed a melting point of more than 250 °C.

As to `CONC(=O)Cc1ccccc1Nc1c(Cl)cccc1Cl`, the melting point lay in the range of 177 to 178 °C.

Compound `CC(C)N1CC(=O)C(C#N)=C1N` had a melting point of 285 to 290 °C.

The compound `CCOC(=O)c1ccc([N+](=O)[O-])c(O)c1Br` registered a melting point of 58 to 61 °C.

On to `COc1ccc(-c2[nH]nc3c2C(=O)c2c(NC(=O)NNC(=O)CCCc4ccccc4)cccc2-3)cc1`, for which the melting point worked out at 269 °C.

Regarding `CC1(C)Oc2ccccc2C=C1/C=C/C=C/C=C/C(=O)O`, the melting point lay within 180 to 182 °C.

As for `Cc1cc(C)n2ncc([N+](=O)[O-])c2n1`, the melting point fell in the range of 156 to 157 °C.

In turn, `CCCCc1nn(-c2cccc([N+](=O)[O-])c2)c(=O)n1Cc1ccc(-c2ccccc2S(N)(=O)=O)cc1` displayed a melting point of 73 to 76 °C.

Regarding `N#CCc1c(Cl)ccc2cc(Cl)cnc12`, the melting point came out at 152 °C.

`CCOC(=O)N1CCCc2nc3cc(C)ccc3c(C)c2C1` registered a melting point of 132 °C.

Consider `CNc1nc(-c2cccc(C=O)c2)c2cc(OC)c(OC)cc2n1`, for which the melting point fell in the range of 110 to 112 °C.

In turn, `COC(=O)c1ccccc1NC(C#N)c1ccc(Br)cc1` (stereo not given) displayed a melting point of 112 °C.

Compound `CCNC(C)c1cc(S(N)(=O)=O)sc1S(C)(=O)=O` (stereo not given) registered a melting point of 164 to 166 °C.

With `CC(C)c1cc(C(C)C)c(CC(=O)NS(=O)(=O)Oc2c(C(C)C)cc(NS(C)(=O)=O)cc2C(C)C)c(C(C)C)c1`, the melting point fell in the range of 164 to 166 °C.

Compound `Cn1ncc2c(=O)n3c(nc21)SCCC3` yielded a melting point of 179 to 180 °C.

In turn, `CC(C)Oc1ccc(N2CCCN(c3cc[nH]c(=S)c3C#N)CC2)cc1` gave a melting point of 216 to 218 °C.

`COc1ccc(CC(=Nc2ccccc2)NC(=S)NCc2cccnc2)cc1` registered a melting point of 175 to 176 °C.

In turn, `CCCn1cc2c(C3C(=O)Nc4ccc(C#N)cc43)nc(NCc3cccnc3)nc2n1` (stereo not given) yielded a melting point of 291 to 295 °C.

With `CC(C(=O)O)c1ccc(-c2ccc(F)cc2F)cc1` (stereo not given), the melting point lay in the range of 110 to 113 °C.

In the case of `O=C(Nc1ccc(F)c(Cl)c1F)C(F)(F)F`, the melting point fell in the range of 73 to 74 °C.

On to `C=CCNc1ccc(C(=O)O)cc1`, for which the melting point lay within 144 to 146 °C.

The compound `CN1C(=O)N=NC1CSc1ccccc1OCCc1coc(-c2ccccc2)n1` (stereo not given) yielded a melting point of 130 to 132 °C.

`CCCCOCCOc1ccc(-c2ccc(N3CCCC3)c(C(C)=CC(=O)O)c2)cc1` yielded a melting point of 128 °C.

`Nc1c(Cl)cc(Cl)c(-c2nsc(C(F)(F)F)c2Cl)c1Br` came in with a melting point of 77 to 78 °C.

Turning to `CN(C)c1nc2cc(NC(=O)c3c(C(=O)N4CCC4)cnn3C)ccn2n1`, the melting point was in the range of 240 to 241 °C.

On to `CCOC(=O)c1cn2cccc(C(=O)OCC)c2n1`, for which the melting point was found to be 97 °C.

`C=CCc1cc(C(=O)CC(=O)C(C)(C)C)cc(OC)c1O`: the melting point was 115 to 116 °C.

In turn, `CC(O)C1(c2cccc(Cl)c2)CCN(C)CC1` (stereo not given) came in with a melting point of 125 to 126 °C.

With `Cc1cc(-c2nc3cc(-c4ccncc4)cc(N)n3n2)oc1C`, the melting point was 275 to 277 °C.

Turning to `Cc1nc2c(N)nc3ccccc3c2n1CCCNC(=O)c1ccccc1`, the melting point lay in the range of 230 to 231 °C.

`CC(C)(C)OC(=O)CN(C(=O)CNC(=O)c1ccc(Cl)c(Cl)c1)c1ccccc1` displayed a melting point of 95 °C.

With `N#CCn1nnc(NC(=O)C2c3ccccc3Oc3ccccc32)n1`, the melting point is 204 to 205 °C.

As for `O=C(O)CCc1c(C(=O)O)[nH]c2cc(-c3ccccc3)ccc12`, the melting point is 238 to 239 °C.

For `CC(C)(C)NC(=O)N1CCN(c2ccc3ncc(Br)n3n2)CC1`, the melting point lay in the range of 199 to 200 °C.
